For one assay, the system named is PGC1α. The assay is described as follows: PGC1α mRNA expression by real-time quantitative PCR in HepG2. Format: cell-based, human. Conditions: 1 μM, 6 hours, HepG2 (FIG. 5C). The source says: Peroxisome proliferation factor activated receptor (PPAR) is an important nuclear receptor that regulates glycolipid metabolism, including three subtypes: α, β/δ and γ. Peroxisome proliferator-activated receptor γ coactivator 1α (PGC-1α) is its auxiliary transcriptional activator. Acyl-CoA oxidase 1 (ACOX1) is the first rate-limiting enzyme for fatty acid β oxidation. Fatty acid binding protein 1 (FABP1) is highly expressed in liver, and can bind fatty acid, heme and other molecules to reduce their toxicity and damage. Up-regulating the expression level of these genes helps to improve the body's metabolism, and their agonists are an important class of anti-metabolic drugs. After the compound of the present application (1 μM) and the control drug gemfibrozil (1 μM) were incubated with human liver cancer cells HepG2 for 6 hours, real-time fluorescent quantitative PCR method was used to determine the relative expression of mRNA of related genes in the cells.
The company which synthesized the primers was Suzhou Hongxun Biotechnology Co., Ltd. Tranzol reagent (Tranzol total RNA extraction reagent, TransGen Biotech) was used to extract total RNA from tissues. 5× All-In-One RT MasterMix reverse transcription kit (Abcam, USA) and real-time quantitative PCR Master Mix (Aidlab Biotechnologies Co., Ltd) were used. Bio-Rad CFX Connect™ Real-Time PCR Detection System for qPCR was used, and 2^−ΔΔCT method was used for data analysis. The expression level of mRNA in the normal control group was set to 1, and the relative expression level of mRNA in the administration group was calculated, so as to confirm whether the active compound affected the PPAR pathway, thereby further regulating lipid metabolism.

Assay [1] relates to antioxidant response element (ARE). The assay is described as follows: ARE luciferase reporter gene activity in HepG2 cells. The format is cell-based, human. Conditions: 50 μM, HepG2 stably transfected (FIG. 4). The protocol: (§1) NF-κB was the most important inflammatory signal pathway. SW480 human colon cancer cells stably transfected with a luciferase reporter gene driven by NF-κB were used to determine the effects of the compound of the present application and the control drug gemfibrozil on NF-κB transcriptional activity, which comprised the following steps. • (1) Cells stably transfected with NF-κB Luc were cultivated to exponential growth, inoculated at a culture medium concentration of 1×10^5/[…] in a 24-well plate, and cultured for 24 hours, the medium was discarded, and the test compound or gemfibrozil formulated with serum-free medium at 50 μM were added to the 24-well plate and incubation was continued for 6 hours. After washing once with 200 μL of PBS, 100 μL of reporter gene cell lysis buffer was added, the cells were lysed on ice for 10 minutes, and the cell lysate was collected by pipetting. • (2) After centrifugation was performed at 8000 rpm and 4° C. for 10 min, the supernatant was pipetted for fluorescence assay. • (3) The measurement gap time of chemiluminescence analyzer was set to 2 s and the measurement time was set to 10 s. Automatic sample injection was adopted, 50 μL of luciferase assay reagent was added to each well. The reporter gene cell lysis buffer was used as a blank control. • (4) After centrifugation, the supernatant was taken, and the BCA method was used to determine the protein concentration so as to normalize the reporter gene results.
In this experimental example, the luciferase activity in HepG2 human liver cancer cells stably transfected with a luciferase reporter gene driven by antioxidant response element (ARE) was determined to evaluate the regulatory effects of the compound of the present application and gemfibrozil on the transcriptional activity of transcription factor Nrf2 and the cellular oxidative stress response signals, in which the operation process of the reporter gene assay was the same as that of Experimental Example 2.2.
(In general: Reporter assays use an easily measured gene product as a stand-in for the process of interest.)

In assay [2] the test system is RAW264.7 mouse macrophages. The assay is described as follows: Determination of NO generation induced by LPS. Format: cell-based. Conditions: 10 μM, 1 μg/mL LPS, 24 hours, RAW264.7 (FIG. 2). The procedure: The results are expressed as the multiple of the NO content in the cell culture supernatant of the administration group (10 μM) as compared with that in the cell culture supernatant of the control group (DMSO group), in which compared with the control group, *P<0.05, **P<0.01, ***P<0.001.
NO is a reactive nitrogen species (RNS) and an important gas signal molecule. Macrophages could convert arginine into NO which participated in the body's inflammatory response. Therefore, determination of inhibitory activity of a drug on NO generation was one of the classic methods to evaluate drug's anti-inflammatory ability. RAW264.7 cells at exponential growth phase were inoculated into a 96-well plate at 1×10^4 cells/200 μL. well of medium. After adherence, the medium was discarded, and the cells were subjected to drug treatments. Normal group (serum-free medium), LPS model group (serum-free medium containing 1 μg/mL LPS), LPS+drug group (serum-free medium containing 1 μg/mL LPS, 10 μM gemfibrozil or the compound of the present application) were established, and 3 repeated wells were set for each group. After 24 hours incubation in incubator, cell supernatant of each well was collected and assay was performed according to the instructions of NO determination kit (Nanjing Jiancheng). The absorbance value of each well at wavelength of 540 nm was read and NO content was calculated.

In another assay the test system is NF-κB. The assay is described as follows: NF-κB luciferase reporter gene transcriptional activity in SW480 cells. The format is cell-based, human. Conditions: 50 μM, 6 hours, SW480 stably transfected (FIG. 3). The procedure:
as §1

In the case of `Cc1cc(OCCCC(C)(C)C(=O)O)c(C)cc1F` [BJMU-3, 5-(4-fluoro-2,5-dimethylphenoxy)-2,2-dimethylpentanoic acid], in the assay on PGC1α, the “PGC1α mRNA expression” value was “significantly induced PGC1α mRNA expression”. For the same compound, the “ARE reporter gene activity” value in assay [1] is reported as “could significantly activate the ARE reporter gene activity”. Moreover, the “NO generation induced by LPS” value in assay [2] is “could inhibit NO generation”.

As to `Cc1cc(OCCCC(C)(C)C(=O)O)c(C)cc1Br` [BJMU-2, 5-(4-bromo-2,5-dimethylphenoxy)-2,2-dimethylpentanoic acid], the “PGC1α mRNA expression” value in the assay on PGC1α is listed as “significantly induced PGC1α mRNA expression”. In the assay with NF-κB, the “activity of NF-κB reporter gene” value is “could significantly inhibit the activity of NF-κB reporter gene”. Also, in assay [1], the “ARE reporter gene activity” value was “could significantly activate the ARE reporter gene activity”. In assay [2], the “NO generation induced by LPS” value is listed as “could inhibit NO generation”.

`Cc1cc(OCCCC(C)(C)C(=O)O)c(C)cc1Cl` [BJMU-1, 5-(4-chloro-2,5-dimethylphenoxy)-2,2-dimethylpentanoic acid]: the “PGC1α mRNA expression” value in the assay on PGC1α is recorded as “significantly induced PGC1α mRNA expression”. Besides, the “activity of NF-κB reporter gene” value in the assay with NF-κB is recorded as “could significantly inhibit the activity of NF-κB reporter gene”. In addition, the “ARE reporter gene activity” value in assay [1] is listed as “could significantly activate the ARE reporter gene activity”. Also, in assay [2], the “NO generation induced by LPS” value is reported as “could inhibit NO generation”.

As for `Cc1ccc(C)c(OCCCC(C)(C)C(=O)O)c1` [gemfibrozil, Gemfibrozil, reference compound], the “PGC1α mRNA expression” value in the assay on PGC1α is reported as “could not activate PGC1α expression”. Further, the “activity of NF-κB reporter gene” value with NF-κB was “could not inhibit the activity of NF-κB reporter gene”. Besides, the “ARE reporter gene activity” value in assay [1] is listed as “did not obviously activate the ARE”. For the same compound, the “NO generation induced by LPS” value in assay [2] is reported as “did not have an activity of inhibiting NO generation”.

For the origin of these results see patent US12365643B2, “Phenoxy carboxylic acid compounds and medical uses thereof” (QINGDAO RISING BIOTECHNOLOGY CO., LTD, priority 2018, dated 2025).
